Laboratory results taken from patent US9018188B2, “MicroRNA inhibitors” (Ottawa Hospital Research Institute, priority 2011, dated 2015).

Assays:
Format in all cases: in vivo, mouse
TA muscles = assay: High-resolution respirometry on TA muscles after ASO treatment
Source text: To quantify bioenergetic effects of miR-133 ASO induced BAT in muscle, Applicant performed high-resolution respirometry on TA muscles after 2 months of either control- or miR-133 ASO treatment (C57BL/6 male fed on RD, n=6 in each treatment group). […] This marked difference in the response to FA is consistent with reported acute activation of mitochondrial respiration rates in brown adipocytes exposed to fatty acids (Matthias et al., 2000).
Surgically extracted tibialis anterior (TA) and contralateral soleus (SOL) muscles were immediately placed in ice-cold biopsy preservation solution (BIOPS) containing […], 7.23 mM K2EGTA buffer, 0.1 μM free calcium, 20 mM imidazole, 20 mM taurine, 50 mM 2-(N-Morpholino)ethanesulfonic acid hydrate (K-MES), 0.5 mM dithiothreitol (DTT), 6.56 mM […], 5.77 mM ATP, and 15 mM phosphocreatine (pH 7.1). The TA muscle was cut longitudinally into 4 equal parts, 2 of which were assessed by respirometry as intact cells and 2 after chemical permeabilization of the sarcolemma. The SOL muscle was cut in half longitudinally and both sections were permeabilized before respirometry. Prior to permeabilization muscle samples were gently dissected with two pairs of sharp forceps, achieving a high degree of fibre separation verified microscopically. Chemical permeabilization was achieved by incubation of the fibres with saponin (50 μg/mL) in 2 mL of BIOPS for 30 minutes at 4° C. (Gnaiger, 2009b). Permeabilized samples were then rinsed with a mitochondrial respiration medium (MiR05) containing 0.5 mM EGTA, 3 mM MgCl2.6H2O, 60 mM K-lactobionate, 20 mM taurine, 10 mM KH2PO4, 20 mM HEPES, 110 mM sucrose, and 1 g/L bovine serum albumin (pH 7.1).
Muscle bundles (both intact TA, and permeabilized TA and SOL) were blotted and measured for wet weight in a balance controlled for constant relative humidity, providing hydration consistency and stability of weight measurements. Each sample was then placed into a single chamber of the high-resolution Oroboros Oxygraph-2k (Oroboros, Innsbruck, Austria) containing MiR05 solution and measured at 37° C. The Oxygraph is a two-chamber titration-injection respirometer with an oxygen detection limit of up to 0.5 pmol·sec^−1·mL^−1. Standardized instrumental calibrations were performed to correct for back-diffusion of oxygen into the chamber from the various components, leak from the exterior, and sensor oxygen consumption. Oxygen flux was resolved by software allowing nonlinear changes in the negative time derivative of the oxygen concentration signal (Oxygraph 2k, Oroboros, Innsbruck, Austria).
Leak respiration was induced with the addition of malate (2 mM) and octanoyl carnitine (0.2 mM). This state represents the oxygen consumption of an unaltered and intact electron transport system (ETS) without the exogenous provision of adenylates. In the LN state, the chemiosmotic gradient is at maximum and oxygen flux represents proton leak, slip, and cation cycling in muscle (Pesta and Gnaiger, 2011) and maximal respiration in BAT induced by fatty acids (Matthias et al. 2000). Further uncoupling of the ETS in muscle cells was assessed with the proton ionophore, carbonyl cyanide p-(trifluoromethoxy) phenylhydrazone (FCCP; 0.7 μM per titration up to concentrations ranging from 2.5-4 μM) to achieve a maximal uncoupling response.
Leak respiration in the absence of adenylates (LN) was induced with the addition of malate (2 mM) and octanoyl carnitine (0.2 mM). Lipid oxidative phosphorylation capacity (PETF) and maximal electron flow through electron transferring-flavoprotein (ETF) was determined following the addition of ADP (5 mM). […]

hindlimbs = assay: Thermographic imaging of hindlimb surface temperature
Procedure: Mouse thermographic imaging was performed with a FUR T640 infrared camera with highest sensitivity set to ˜35° C. Control- or miR-133 ASO treated C57BL/6 male mice fed with either a regular diet or a high fat diet were shaved at both of the hindlimbs one day before the imaging. Subject mice were quickly anesthetized under ˜1% isoflurane and thermographic images were taken immediately after the mice were anesthetized (within 2 minutes). Data analysis was performed using FUR QuickReport software with measuring crosses set on the TA muscle areas on lower hindlimbs and the neck areas.

IPGTT glucose tolerance = settings: both diet groups
Source text: (B) Retarded body weight increase over a 16-week body weight monitoring time course in mice received miR-133 ASO treatment during TA muscle regeneration (n=6 per treatment group per diet group). […] Values of total energy expenditure were plotted without normalization to lean body mass. (D) Physical activities measured within light and dark cycles during indirect calorimetry (C) reveal increased physical activities within the dark cycle for miR-133 ASO treated mice (fed the RD). Physical activities are presented as arithmetic means of beam breaking events at X-, Y- and Z-dimensions. (E) IPGTT tests for C57BL/6 mice received either control- or miR-133 ASO treatment (fed the RD; n=6 per group). Error bars: S.E.M., asterisk: significant pair-wise comparison by t-test, *: p≦0.05, **: p≦0.01, ***: p≦0.001, n.s.: not significant.
This discrepancy may be related to the abnormally low respiratory exchange ratio (˜0.76) in the control mice fed with HFD (FIG. 7D), which indicates an increased proportion of lipid oxidation in the control mice. […] In addition, miR-133 ASO treatment also led to much improved glucose tolerance in both diet groups (FIGS. 6E & 7F).

In the case of “*mA*mUmAmGmCmUmGmGmUmUmGmAmAmGmGmGmGmAmC*mC*mA*mA*mAChl [miR-133 ASO]”, the “additional energy expenditure in the treated TA muscle from uncoupling respiration” value (TA muscles; by calculation) is reported as 0.3 cal/h/mg, the “higher respiration rate versus control” value (TA muscles; intact TA muscle with FA) is reported as 1.75 fold and the “mitochondrial respiration rate after titration of FA (octanoyl carnitine), uncoupled/intact cells” value (TA muscles; intact TA muscle, 2 months after treatment, C57BL/6 male on RD, n=6) is reported as 13.5±1 pmol·sec^−1·lo^−1. The “respiration rate in response to ADP (state-3 respiration mediated by ETF)” value (TA muscles; permeabilized TA muscle) was “unchanged”, the “state 3 respiration rates with complex I+II substrates (P I+II) versus control” value (TA muscles; permeabilized TA muscle, addition of succinate) was “no difference” and the “electron transport through complex I (NADH dehydrogenase) respiration rate” value (TA muscles; permeabilized TA muscle, after titration of glutamate, p=0.2 versus control) was 33±3 pmol·sec^−1lo^−1. For the same substance, the “surface temperature of treated hindlimbs higher than control hindlimbs” value (hindlimbs; mice fed with HFD) was 0.9 °C, the “surface temperature of treated hindlimbs higher than control hindlimbs” value (hindlimbs; mice fed with RD) was 0.7 °C and the glucose tolerance (IPGTT glucose tolerance) was “much improved”.
